The record followed here is paper PMC7949159, “Optimized binding of substituted quinoline ALLINIs within the HIV-1 integrase oligomer” (The Journal of Biological Chemistry, 2021).

Each structure is given as a SMILES string. Like-named read-outs stand apart in the source and are kept apart here. A value given as a limit tells only on which side of the number the result lay.

In data set [1] the test system is noninfected cells. In words: CyQUANT XTT Cell Viability cytotoxicity assay. The class given is cell-based. For orientation: Tetrazolium assays rely on reduction of a dye to a coloured formazan, in cell work by metabolically active cells.
The test system of data set [2] is HIV-1. The procedure:
For early stage experiments, viral infectivity of target cells was measured in the presence of increasing concentrations of inhibitors. For late stage, producer cells were transfected in the presence of increasing concentrations of inhibitors, cell-free virions were harvested at 48 h, and the amounts of viral particles produced were measured by p24 concentration essay. Subsequently, the infectivity of these progeny virions was examined without any additional inhibitor being added to the target cells. […] For full viral cycle experiments, the same inhibitor concentrations were added in the producer cells and the target cells ([31]).
The EC50 values were determined in single replication cycle as described previously ([17]). […] The virus supernatants were collected 24 h after drug treatment, and p24 concentrations were determined by HIV-1 Gag p24 ELISA (ZeptoMetrix) following manufacturer’s protocol. The target cells were then infected with HIV-1 virions equivalent to 4 ng of HIV-1 p24, in the absence or presence of indicated concentrations of drugs. To measure EC50 values during the early replication stage, DMSO or the inhibitor was added to the target cells 60 min before infection. The cells were cultured for 48 h, and the cell extracts were prepared using reporter lysis buffer (Promega). Luciferase activity was determined using a commercially available kit (Promega). The cytotoxicity assays were performed on noninfected cells using the commercially available CyQUANT XTT Cell Viability Assay (Invitrogen, Inc) by following the manufacturer protocol. The dose–response curves were fitted with a sigmoidal dose–response equation with Hill slope to determine the compound IC50 and CC50 using Origin software (v9.7).

The target in data set [3] is T1, HIV-1 IN (full-length, His-tagged and FLAG-tagged) (Human immunodeficiency virus type 1 group M subtype B, UniProt P12497).
T1 construct: recombinant proteins 6xHis-tagged and FLAG-tagged full-length INs were expressed in E. coli; made in house; host or cells: E. coli
In words: HTRF-based IN multimerization assay. The format is biochemical. The settings on record: average with SD of three independent experiments, read-out: In vitro IN multimerization EC50. Here is the method:
For biochemical studies, recombinant proteins 6xHis-tagged and FLAG-tagged full-length INs were expressed in E. coli and purified by column chromatography as previously described ([39]). The HTRF-based assay used to monitor inhibitor-induced aberrant multimerization of IN was performed as previously reported ([15], [19]). Briefly, two separate preparations of His-tagged and FLAG-tagged IN proteins were mixed in presence of increasing concentration of the test compounds and incubated for 2.5 h at room temperature. Anti-His6-XL665 and anti-FLAG-EuCryptate antibodies (Cisbio, Inc) were then added to the reaction and incubated at room temperature for 3 h.

Data set [4] concerns the target T2, HIV-1 IN-CTD / full-length IN complex (Human immunodeficiency virus type 1 group M subtype B, UniProt P12497).
T2 construct: His-tagged CTD-IN and FLAG-tagged full-length IN proteins were mixed; made in house; host or cells: E. coli (stated for the full-length INs)
In words: HTRF-based CTD binding assay (His-tagged CTD-IN with FLAG-tagged full-length IN). The class given is biochemical. The settings on record: 200 nM of ALLINI. The source says: To detect in isolation the specific contribution of the IN-CTD to the ALLINI-induced IN multimer complex formation, we have modified our published HTRF-based assay (Fig. 3, A and B). In this new analytical assay, anti-His6-XL665 and anti-FLAG-EuCryptate antibodies allow the detection of fluorescence energy transfer only when FLAG-tagged full-length IN protein tightly interacts with a His-tagged IN-CTD construct. Mixing of the proteins and without compound addition generated a small HTRF signal (Fig. 3C, dimethyl sulfoxide [DMSO]) indicating a weak interaction between the full-length IN and the IN-CTD construct. Strikingly, the addition of ALLINI to the assay promoted a significant increase of HTRF signals proportional to the IN multimerization properties of the compound.
Figure 3 C-terminal domain (CTD) contribution to the ALLINI-induced IN multimer formation.A, schematic of the standard HTRF-based IN multimerization assay. […] C, HTRF signal intensities recorded after the addition of 200 nM of ALLINI to a mixture of Flag tagged full-length IN and His-tagged CTD domain proteins as described in the Methods section. ALLINI, allosteric IN inhibitors; HTRF, homogeneous time resolved fluorescence; IN, integrase.
The CTD-IN protein was generated and purified using a published method ([40]). […] The HTRF binding signal between proteins was recorded using a PerkinElmer EnSpire multimode plate reader.
(In general: TR-FRET usually uses a lanthanide donor and a delayed reading to cut background.)

Data set [5] relates to HIV-1 virions (viral core density). In words: Sucrose density gradient fractionation of detergent-lysed virions (p24 distribution). The class given is cell-based. The settings on record: 1 μM during viral production, versus DMSO; fractions 16–22. The source says: We and others have previously observed how ALLINIs interfere with proper virus particle maturation and yield noninfectious particles with eccentrically positioned RNPs. This mislocalization of the RNP to a position located between the low density empty capsid (CA) core and the particle membrane in mature virions has been observed using electron microscopy ([17], [31], [32]). The buoyant sucrose gradient technique that measure the relative density of the viral core of mature virions has also been validated as an effective approach to characterize this mislocalization of the RNP ([17], [33], [34]). […] The CA core density was then detected by measuring the HIV-1 CA (p24) content of each sucrose fraction.
For sucrose density gradient fractionation ([17], [33], [34]), cell-free virions produced from HEK293T cells transfected with pNL4-3 in the absence or presence of indicated concentration of ALLINI were concentrated by ultracentrifugation over a 25% sucrose cushion, pelleted virions were lysed with 0.5% Triton X-100 and were ultracentrifuged through a 20% to 70% (wt/vol) linear sucrose density gradient at 28,500 rpm for 16 h at 4C in SW40 rotor (Beckman). […] The relative distribution of HIV-1 capsid was determined by quantifying the Western blot p24 signal. […]

Usually CC50 stands for the concentration at which the toxic effect on the cells reaches its halfway point. High values mean lower toxicity to the cells, low ones greater toxicity to the cells. One may read the IC50 as the concentration that gives 50% inhibition. The term EC50 denotes the concentration needed to bring the measured effect to its halfway point. Take `Cc1nc2ccccc2c(-c2ccc3c(c2)OCCO3)c1C(OC(C)(C)C)C(=O)O` (stereo not shown) [NGJ-9002]: in data set [1], the CC50 is above 100 µM. Besides, in data set [2], the “PSI (phase specificity index)” value is given as 64. Also, the IC50 in data set [2] (read-out: Early IC50) came out at 42 ± 3 µM; in data set [2] (read-out: Full IC50), 0.83 ± 0.05 µM; in data set [2] (read-out: Late IC50), 0.66 ± 0.03 µM. In addition, the EC50 in data set [3] is 0.11 ± 0.01 µM.
The compound `COc1ccccc1-c1ccc2c(-c3ccc4c(c3)OCCO4)c(C(OC(C)(C)C)C(=O)O)c(C)nc2c1` (stereo not shown) [JDH-2110] had a CC50 in data set [1] above 100 µM. In data set [2], the “Fold improvement of overall antiviral IC50” value is listed as “about 30 fold”, the “Fold increase of PSI” value came out at 7 fold and the “PSI (phase specificity index)” value was 465. For the same compound, the IC50 in data set [2] (read-out: Early IC50) was found to be 9.3 ± 0.5 µM. The IC50 in data set [2] (read-out: Full IC50) came to 0.03 ± 0.01 µM. In data set [2] (read-out: Late IC50), the 50% inhibitory concentration (IC50) was 0.02 ± 0.01 µM. In data set [4], the “HTRF signal intensity, CTD / full-length IN complex” value was “higher HTRF than NGJ9002”. For the same compound, the 50% effective concentration (EC50) in data set [3] is 0.04 ± 0.01 µM. The “Effect on HIV-1 capsid (p24) distribution in sucrose density gradient fractions” value in data set [5] was “reduction of CA signal in high-density fractions”.
